ChEMBL document CHEMBL1148181, “Anti-AIDS agents, 9. Suberosol, a new C31 lanostane-type triterpene and anti-HIV principle from Polyalthia suberosa” (J Nat Prod, 1993)
In brackets after ≈: the same amount, converted by molar mass.

What was measured:
[1] = system: Human immunodeficiency virus 1; assay: Antiviral activity against HIV1 3B in human H9 lymphocytes after 3 days by p24 antigen capture assay; type: functional, organism-based; conditions: Human immunodeficiency virus 1, 3B, 72 h
H9 = assay: Cytotoxicity against human H9 lymphocytes; type: cell-based

EC50 [1]: 3 µg/mL (≈ 6.6 µM)
Structure (SMILES): C=C(CC[C@@H](C)[C@H]1C[C@H](O)[C@@]2(C)C3=CC[C@H]4C(C)(C)[C@@H](O)CC[C@]4(C)C3=CC[C@]12C)C(C)C [SUBEROSOL]
IC50 (H9): 20 µg/mL (≈ 44 µM)
